Reference: PMC8957950 (Frontiers in Pharmacology, 2022)
Like-named read-outs stand apart in the source and are kept apart here.

Columns and labels:
[1] = tested on: Gram-positive bacteria; test: Clinical and microbiological efficacy evaluation of TEI treatment; type: in vivo, human; conditions: for Eradication rate of Gram-positive bacteria: eradication or presumed eradication
Procedure: According to the guiding principles of Clinical Trial Technology of antibacterial agents (2014 edition) ([Writing Group of Guidance for Clinical Trials of Antibacterial Drugs, 2014]), the judgment on efficacy evaluation includes clinical efficacy and microbiological efficacy. Clinical efficacy was evaluated after 7–14 days of medication. Clinical efficacy was evaluated in terms of clinical cure and clinical failure. Clinical cure is defined as the complete resolution or significant improvement of pretreatment infection signs and symptoms such that no additional antimicrobial therapy is needed. Clinical failure is defined as no apparent response or an incomplete response that needs additional antibiotic therapy for infections. The microbiological efficacy was evaluated as eradication, presumed eradication, no eradication, and presumed no eradication. Microbiological success was defined as eradication or presumed eradication of Gram-positive bacteria ([Writing Group of Guidance for Clinical Trials of Anti-bacterial Drugs, 2014]). The primary outcomes were clinical cure and microbiological success rates at the end of treatment (EOT).
Univariate and multivariate logistic regression analyses were used to select the covariables of the regression model. We established the regression model for predicting the factors influencing the eradication of Gram-positive bacteria. In univariate analysis, the χ^2 test or the Fisher exact test was used to compare the categorical variables. Continuous variables were compared by using the Mann–Whitney U test. Covariates with p values <0.1 were included in the multivariate logistic regression analysis (backward procedure, based on the p-value of the predictor removed) ([Hammitt et al., 2019]). Multivariate logistic regression analysis was used to screen for independent risk factors. SPSS software automatically screened out the independent variables when the optimal balance was reached between the fitting degrees of the prediction model.
Independent risk factor variables were used to establish regression equations and calculate prediction probabilities. The receiver operating characteristic (ROC) curves of multivariate factors were drawn; the area under the curve (AUC), cutoff point, Youden index, sensitivity, and specificity were used to evaluate their predictive value for predicting the factors influencing the eradication of Gram-positive bacteria.

[2] = Excerpt: Patients’ data were obtained from the inpatients’ medical database.

Teicoplanin
Cases of presumed eradication of Gram-positive bacteria ([1]; CRRT group): 4 cases
Clinical cure rate ([1]; CRRT group (n = 40)): 67.5%
Eradication rate of Gram-positive bacteria ([1]; CRRT group): 77.5%
Clinical cure rate ([1]; non-CRRT group (n = 66)): 72.7%
Eradication rate of Gram-positive bacteria ([1]; non-CRRT group): 81.8%
28-day hospital mortality rate ([2]; CRRT group): 22.5%
28-day hospital mortality rate ([2]; non-CRRT group): 15.2%
